Experimental data taken from patent publication US20250326722A1 (SHANGHAI HANSOH BIOMEDICAL CO., LTD., priority 2022, published 2025).

What was measured:
[1] = target: PCSK9 secreted by HepG2 cells (Homo sapiens (Human), UniProt Q8NBP7); assay: Effect on the concentration of PCSK9 secreted by HepG2 cells (ELISA); assay type: cell-based; settings: 48 hours incubation, read-out: Inhibitory activity on PCSK9, IC50
[2] = test system: hyperlipidemia animal model of B6-hPCSK9 transgenic mice; assay: In vivo pharmacodynamics in hyperlipidemia animal model of B6-hPCSK9 transgenic mice; set-up: species or system B6-hPCSK9 transgenic C57 mice; settings: PO administration, 10 mpk, Day 14, high-fat feed
Method: The compounds of the present disclosure were evaluated for in vivo pharmacodynamics in a hyperlipidemia animal model of B6-hPCSK9 transgenic mice.
B6-hPCSK9 transgenic C57 mice, 6-8 weeks old, male, purchased from Jiangsu GemPharmatech Co., Ltd.
After delivery to a barrier system, the animals were given one week for acclimatization and began to feed on the high-fat feed. The body weight and feed weight were weighed once a week, and the body weight and food intake thereof were recorded.
a. The animals were grouped by a random grouping method.
c. According to the grouping results, administration with the test drug was started (mode of administration: oral administration; administration volume: 10 mL/kg; frequency of administration: once/day or single administration; administration cycle: 21 days; vehicle: 10% Solutol HS 15/90% Saline).
d. After the test drug was administered, the body weight and feed weight were weighed twice a week and blood was taken once a week.
e. The data was processed with software such as Excel. […] PCSK9 in plasma was detected by ELISA.

[3] = Pharmacokinetic determination in mice (plasma); assay type: in vivo, C57BL/6J mice; settings: C57 mice, PO administration, 5 mpk; for AUC(0-inf) / half-life / MRT / Cmax: male, C57BL/6J, mouse, 5 mg/kg; for AUC(0-inf): read-out: Area under the curve AUC0-∞; for half-life: read-out: Half-life t1/2 (converted); for MRT: read-out: Mean residence time MRT; for Cmax: read-out: Plasma concentration Cmax
Summary of the method: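 Male C57BL/6J mice (n=3 per route), fasted overnight, got 5 mg/kg PO in 10% Solutol HS15 or 1 mg/kg IV in 5% DMSO/10% Solutol HS15/85% PBS. Orbital blood was sampled at 0.083 (IV only), 0.25, 0.5, 1, 2, 4, 8 and 24 h. EDTA-K2 plasma was quantified by LC-MS/MS for PK parameters.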

Chain of PCSK9 secreted by HepG2 cells (Q8NBP7 153-692): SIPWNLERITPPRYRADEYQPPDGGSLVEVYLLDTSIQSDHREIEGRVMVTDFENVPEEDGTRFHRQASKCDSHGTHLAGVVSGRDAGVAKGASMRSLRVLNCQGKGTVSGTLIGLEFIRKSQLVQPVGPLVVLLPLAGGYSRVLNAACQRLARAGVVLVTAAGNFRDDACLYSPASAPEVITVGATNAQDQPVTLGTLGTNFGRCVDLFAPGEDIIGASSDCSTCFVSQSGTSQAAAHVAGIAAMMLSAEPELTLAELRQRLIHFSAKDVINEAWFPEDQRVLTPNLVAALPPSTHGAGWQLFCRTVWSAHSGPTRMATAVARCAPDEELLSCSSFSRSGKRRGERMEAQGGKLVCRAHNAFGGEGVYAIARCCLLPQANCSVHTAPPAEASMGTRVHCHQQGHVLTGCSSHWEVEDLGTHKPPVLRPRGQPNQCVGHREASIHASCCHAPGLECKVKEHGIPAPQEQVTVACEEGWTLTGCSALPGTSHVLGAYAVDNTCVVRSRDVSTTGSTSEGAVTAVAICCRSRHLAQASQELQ
Chain of PCSK9 secreted by HepG2 cells (Q8NBP7 31-152 partner): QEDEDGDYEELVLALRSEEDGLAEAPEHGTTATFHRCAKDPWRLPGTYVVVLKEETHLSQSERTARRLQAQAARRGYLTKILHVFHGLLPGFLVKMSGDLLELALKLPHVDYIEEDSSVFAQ

SMILES | IC50 [1] | LDL-C change, Day 14 [2] | Time to peak tmax [3] | AUC(0-inf) [3] | half-life [3] | MRT [3] | Cmax [3]
O=C1c2ncccc2CN1c1ccc(N[C@H]2CC[C@H](Nc3ncc(C(F)(F)F)nn3)C2)nc1 [Example 144] | 27.5 µM | −30.39% | 1 h | 15000 ng·h/mL | 2.8 h | 4 h | 2820 ng/mL
Cc1cc2c(cn1)CN(c1ccc(N[C@H]3CC[C@H](Nc4ncc(C(F)(F)F)nn4)C3)nc1)C2=O [Example 148, 6-Methyl-2-(6-(((1S,3S)-3-((6-(trifluoromethyl)-1,2,4-triazin-3-yl)amino)cyclopentyl)amino)pyridin-3-yl)-2,3-dihydro-1H-pyrrolo[3,4-c]pyridin-1-one] | 9.4 µM | −24.61% | 1 h | 59800 ng·h/mL | 3.4 h | 4.3 h | 13500 ng/mL
O=C1c2c(cccc2C(F)(F)F)CN1c1ccc(N[C@H]2CC[C@H](Nc3ncc(C(F)(F)F)nn3)C2)nc1 [Example 157, 7-(Trifluoromethyl)-2-(6-(((1S,3S)-3-((6-(trifluoromethyl)-1,2,4-triazin-3-yl)amino)cyclopentyl)amino)pyridin-3-yl) isoindolin-1-one] | 4.2 µM | −28.99% | 0.5 h | 6200 ng·h/mL | 3.1 h | 2.6 h | 2190 ng/mL
